Tests used:
[1] = two compartment model, nonlinear regression fit
[2] = man and rodents; cited from earlier work
[3] = in vivo; conditions: Sprague Dawley, rat, intravenous, 10 mg DTX equivalent/kg
[4] = rat, in vivo
[5] = rat, in vivo; remark: listed apart in the source
[6] = rat, in vivo; remark: listed apart in the source

Compound | CLD (distribution clearance) [1] [mL/h] | VC (volume of the central compartment) [1] [mL] | VP (volume of the peripheral compartment) [1] [mL] | Vmax (nonlinear clearance, all remaining routes) [1] [ng/h] | renal clearance contribution to DTX clearance [2] [%] | clearance ([3]; plasma and bile) [mL/min] | Km ([3]; plasma) [µg/mL] | tissue distribution phase half-life (t1/2) [4] | CL ([4]; iv) [mL/min/kg] | V (apparent volume of distribution) ([4]; iv) [L/kg] | t1/2 (terminal elimination half-life) ([4]; iv) [h] | percentage of the total 8h biliary metabolites excreted as HDTX (%HDTX) [5] [%] | cumulative 24h urinary DTX excretion [6] [% injected dose]
CC(=O)O[C@@]12CO[C@@H]1C[C@H](O)[C@@]1(C)C(=O)[C@H](O)C3=C(C)[C@@H](OC(=O)[C@H](O)[C@@H](NC(=O)OC(C)(C)C)c4ccccc4)C[C@@](O)([C@@H](OC(=O)c4ccccc4)[C@H]21)C3(C)C [DTX, Docetaxel] | 2202 | 760 | 5811 | 391464 | < 10 | 3.53 | 0.124 | – | – | – | – | – | –
Taxotere | – | – | – | – | – | – | – | ~ 30 min | 86.7 | 3.401 | 3 | 82±12 | 2.36 ± 0.98
